Measured values taken from the CheMixHub viscosity set.

Test: xn = mol fraction of the nth substance listed

CCCCCCCCC(=O)O + CCCCCCCCCCCC(=O)[O-].[Na+]
100 kPa, x2 = 0.2
Details | viscosity [mPa·s]
293.15 K | 68.61
298.15 K | 54.38
303.15 K | 43.69
308.15 K | 35.55
313.15 K | 29.28
318.15 K | 24.38
323.15 K | 20.51

CC1COC(=O)O1 (centres undefined) + COC(=O)OC
298.15 K, 101.3 kPa
Details | viscosity [mPa·s]
x2 = 0.0944 | 2.217
x2 = 0.1815 | 1.965
x2 = 0.3215 | 1.618
x2 = 0.4861 | 1.287
x2 = 0.5752 | 1.138
x2 = 0.6827 | 0.98
x2 = 0.7254 | 0.924
x2 = 0.7801 | 0.856
x2 = 0.9012 | 0.724

O=S(=O)([O-])[O-].[Ca+2] + O
100 kPa
Details | viscosity [mPa·s]
303.15 K, x1 = 0.000281 | 0.7976
323.15 K, x1 = 0.000279 | 0.557

c1ccc2ccccc2c1 + Cc1ccc(C)cc1
viscosity [mPa·s], 101.3 kPa
Details | x1 = 0.00437 | x1 = 0.00869 | x1 = 0.01249 | x1 = 0.01685 | x1 = 0.01712 | x1 = 0.01715 | x1 = 0.01815 | x1 = 0.02139 | x1 = 0.02569 | x1 = 0.02979
293.15 K | 0.6371 | 0.6386 | 0.6414 | – | – | – | 0.6438 | 0.6483 | 0.65 | 0.6534
298.15 K | 0.5968 | 0.5992 | 0.6012 | – | – | 0.6045 | – | 0.6076 | 0.6102 | 0.6125
313.15 K | 0.5333 | 0.5352 | 0.5363 | – | 0.5405 | – | – | 0.5431 | 0.5447 | 0.5469
323.15 K | 0.476 | 0.4777 | 0.4789 | 0.4818 | – | – | – | 0.4848 | 0.4862 | 0.4879

CC1COC(=O)O1 (centres undefined) + Cc1ccccc1
viscosity [mPa·s], 101.3 kPa
Details | 293.15 K | 298.15 K | 303.15 K | 308.15 K
x1 = 0.0911 | 0.6805 | 0.6333 | 0.5934 | 0.5572
x1 = 0.1223 | – | – | 0.6125 | –
x1 = 0.1841 | 0.7726 | 0.719 | 0.6689 | 0.6294
x1 = 0.2385 | – | – | 0.7127 | –
x1 = 0.2789 | 0.8738 | 0.8139 | 0.7586 | 0.7171
x1 = 0.3493 | – | – | 0.824 | –
x1 = 0.3757 | 1.006 | 0.9358 | 0.8694 | 0.8243
x1 = 0.4553 | – | – | 0.9463 | –
x1 = 0.4744 | 1.149 | 1.074 | 0.9983 | 0.9407
x1 = 0.5561 | – | – | 1.085 | –
x1 = 0.5752 | 1.292 | 1.195 | 1.103 | 1.03
x1 = 0.6524 | – | – | 1.244 | –
x1 = 0.678 | 1.529 | 1.404 | 1.304 | 1.203
x1 = 0.7452 | – | – | 1.431 | –
x1 = 0.7831 | 1.856 | 1.69 | 1.549 | 1.42
x1 = 0.8335 | – | – | 1.646 | –
x1 = 0.8904 | 2.256 | 2.048 | 1.869 | 1.71
x1 = 0.9188 | – | – | 1.888 | –

CC(C)=O + CCCCn1cc[n+](C)c1.F[B-](F)(F)F
Details | viscosity [mPa·s]
298.15 K, 101 kPa, x1 = 0.0973 | 77.6

c1ccc2ccccc2c1 + O=[N+]([O-])c1ccccc1
viscosity [mPa·s], 101 kPa
Details | 303.15 K | 308.15 K | 313.15 K | 318.15 K | 323.15 K
x1 = 0.2952 | 1.646 | 1.544 | 1.44 | 1.329 | 1.231
x1 = 0.4191 | – | 1.578 | 1.45 | 1.346 | 1.252

C1CCOC1 + CCC(C)O
viscosity [mPa·s], 101 kPa
Details | 298.15 K | 313.15 K
x1 = 0.0637 | 2.356 | 1.464
x1 = 0.1052 | 2.02 | 1.309
x1 = 0.1565 | 1.747 | 1.153
x1 = 0.2117 | 1.467 | 0.9942
x1 = 0.3052 | 1.155 | 0.8235
x1 = 0.4013 | 0.9585 | 0.7044
x1 = 0.4556 | 0.8592 | 0.6537
x1 = 0.4888 | 0.8108 | 0.6218
x1 = 0.5 | 0.8021 | –
x1 = 0.6054 | 0.6741 | 0.5395
x1 = 0.7009 | 0.5953 | 0.4897
x1 = 0.8036 | 0.533 | 0.4512
x1 = 0.8596 | 0.5129 | 0.4316
x1 = 0.9151 | 0.4818 | 0.4075
x1 = 0.9497 | 0.4749 | 0.4072

CC1COC(=O)O1 (centres undefined) + CCCCCCCO
298.15 K, 101 kPa
Details | viscosity [mPa·s]
x1 = 0.0321 | 4.755
x1 = 0.1202 | 4.481
x1 = 0.1934 | 4.281
x1 = 0.2735 | 4.035
x1 = 0.3226 | 3.909
x1 = 0.4002 | 3.709
x1 = 0.4717 | 3.534
x1 = 0.5334 | 3.39
x1 = 0.6111 | 3.217
x1 = 0.699 | 3.031
x1 = 0.7602 | 2.909
x1 = 0.8226 | 2.789
x1 = 0.8925 | 2.662
x1 = 0.9674 | 2.529
